Data taken from patent US11602519B1, “Method for preventing myocardial infarction using eucalyptol” (KING FAISAL UNIVERSITY, priority 2021, dated 2023).

How the values were obtained:
Assay type in all cases: in vivo, Wister rats
[1] = tested on: ISO induced MI animals; experiment: Heart rate and ECG recording in ISO-induced myocardial infarction; details: for Heart Rate / P Wave / P-R interval / QRS complex / QT interval / R-R interval / ST segment: mean ± SD, n=6
Procedure: Animals were distributed into five groups randomly (n=6). The animals in normal and eucalyptol control groups were administered either saline or eucalyptol for 3 weeks and then saline (s.c) on the last two days of the experiment (20th and 21st days). The animals in the myocardial infarction (MI) control group were given saline orally for 3 weeks, then challenged with Isoproterenol (ISO) (85 mg/kg, s.c.) as stated before on the 20th and 21st days to induce MI. The animals in the eucalyptol pretreatment groups were pretreated with eucalyptol (either 100 or 200 mg/kg) orally for 3 weeks then confronted with ISO (85 mg/kg s.c.) on the last two days of the experiment. All experimental animals were killed 24 hrs after the second dose of ISO. At the end of the experiments, urethane-anesthetized rats (1.5 g/kg) were prone positioned to obtain uninterrupted ECG recordings using noninvasive computerized ECG apparatus from. Kent Scientific (USA). Heart rate and ECG components including ST segment, wave. QT, P-R and R-R intervals, and QRS complex were electronically measured.

[2] = tested on: ISO induced MI animals; experiment: Infarct size determination (TTC staining) in ISO-induced MI; details: pretreatment 100, 200 mg/kg, 21 days, vs ISO induced MI group
Procedure: Animals were distributed into five groups randomly (n=6). The animals in normal and eucalyptol control groups were administered either saline or eucalyptol for 3 weeks and then saline (s.c) on the last two days of the experiment (20th and 21st days). The animals in the myocardial infarction (MI) control group were given saline orally for 3 weeks, then challenged with Isoproterenol (ISO) (85 mg/kg, s.c.) as stated before on the 20th and 21st days to induce MI. The animals in the eucalyptol pretreatment groups were pretreated with eucalyptol (either 100 or 200 mg/kg) orally for 3 weeks then confronted with ISO (85 mg/kg s.c.) on the last two days of the experiment. All experimental animals were killed 24 hrs after the second dose of ISO. Subsequent to ECG determination, blood samples were collected and the hearts were directly removed and balanced using an animal weighing scale prior to storage. The obtained blood samples were centrifuged and the serum from different experimental groups was frozen in −80° C. for further biochemical examinations. Frozen hearts were cut into 4-5 transverse incubated in 10% TTC (dissolved phosphate buffer, pH 7.4) for 25 min. at room temperature, fixed using 10% formaldehyde, and finally quantified using Image J® program (National Institutes of Health, University of Wisconsin).

[3] = tested on: ISO induced MI animals; experiment: Cardiac enzymes by ELISA in ISO-induced MI
Procedure: (§1) Animals were distributed into five groups randomly (n=6). The animals in normal and eucalyptol control groups were administered either saline or eucalyptol for 3 weeks and then saline (s.c) on the last two days of the experiment (20th and 21st days). The animals in the myocardial infarction (MI) control group were given saline orally for 3 weeks, then challenged with Isoproterenol (ISO) (85 mg/kg, s.c.) as stated before on the 20th and 21st days to induce MI. The animals in the eucalyptol pretreatment groups were pretreated with eucalyptol (either 100 or 200 mg/kg) orally for 3 weeks then confronted with ISO (85 mg/kg s.c.) on the last two days of the experiment. All experimental animals were killed 24 hrs after the second dose of ISO. The extracted heart tissues were homogenated in 10% phosphate buffer to be used for the measurement of numerous biochemical parameters, including cardiac enzymes, apoptotic markers, inflammatory mediators' markers, and total protein. ELISA kits were consumed to measure cardiac enzymes: CPK, CK-MB, cTnT, and cTnI; apoptotic markers: Caspase 3 and Caspase 9 and inflammatory mediators: TNF-α, IL-1β, and NFκB. All ELISA Kits were used according to the manufacturer's protocols and using a microplate reader SpectraMax i.3× (Molecular Devices, USA).

[4] = tested on: TLR pathway (TLR 2, TLR 4, MYD 88, and TRIF); experiment: TLR pathway mRNA expression by real-time PCR in ISO-induced MI; details: pretreatment 100, 200 mg/kg, 21 days, vs ISO induced MI control group
Procedure: Animals were distributed into five groups randomly (n=6). The animals in normal and eucalyptol control groups were administered either saline or eucalyptol for 3 weeks and then saline (s.c) on the last two days of the experiment (20th and 21st days). The animals in the myocardial infarction (MI) control group were given saline orally for 3 weeks, then challenged with Isoproterenol (ISO) (85 mg/kg, s.c.) as stated before on the 20th and 21st days to induce MI. The animals in the eucalyptol pretreatment groups were pretreated with eucalyptol (either 100 or 200 mg/kg) orally for 3 weeks then confronted with ISO (85 mg/kg s.c.) on the last two days of the experiment. All experimental animals were killed 24 hrs after the second dose of ISO. Real-time PCR was preformed according to known techniques. Primer sequences used in this study were as follows: Bcl-2-[…] NO: 1), Bcl-2-[…] ID NO:2), Bax-[…] NO: 3), Bax-[…] ID NO: 4), […] ID NO: 5), […] ID NO: 6), […] ID NO: 7), […] ID NO: 8), MyD88 -[…] ID NO: 9), […] ID NO: 11), […] ID NO: 12), β-[…] NO: 13), β-[…] ID NO: 14).

[5] = tested on: TLR pathway (TLR 2, TLR 4, MYD 88, and TRIF); experiment: TLR pathway protein expression by Western blot in cardiac tissue, ISO-induced MI
Procedure: Animals were distributed into five groups randomly (n=6). The animals in normal and eucalyptol control groups were administered either saline or eucalyptol for 3 weeks and then saline (s.c) on the last two days of the experiment (20th and 21st days). The animals in the myocardial infarction (MI) control group were given saline orally for 3 weeks, then challenged with Isoproterenol (ISO) (85 mg/kg, s.c.) as stated before on the 20th and 21st days to induce MI. The animals in the eucalyptol pretreatment groups were pretreated with eucalyptol (either 100 or 200 mg/kg) orally for 3 weeks then confronted with ISO (85 mg/kg s.c.) on the last two days of the experiment. All experimental animals were killed 24 hrs after the second dose of ISO. For detection of the Toll-Like Receptors pathway protein expressions, Western blot was performed according to known methods. Values were mentioned as mean SEM (n=6). Densitometry inquiry was accomplished via Image software for Western analysis. Statistical analysis appraisal was done via GraphPad Prism 5.

[6] = tested on: HSP-60 and inflammatory markers (TNF-α, IL-6 and NFκB); experiment: HSP-60 and inflammatory mediators in ISO-induced MI
Procedure: as §1

[7] = tested on: Bax, Bcl2, Caspase 3 and 9; experiment: Apoptotic status within the myocardium in ISO-induced MI (Bax, Bcl-2 mRNA; Caspase 3 and 9)
Procedure: as §1, with “USA). Real-time PCR was preformed according to known techniques. Primer sequences used in this study were as follows: Bcl-2-[…] NO: 1), Bcl-2-[…] ID NO:2), Bax-[…] NO: 3), Bax-[…] ID NO: 4), […] ID NO: 5), […] ID NO: 6), […] ID NO: 7), […] ID NO: 8), MyD88 -[…] ID NO: 9), […] ID NO: 11), […] ID NO: 12), β-[…] NO: 13), β-[…] ID NO: 14).” for “USA).”

[8] = Eucalyptol 100 mg/kg orally 21 days, then ISO
[9] = Eucalyptol 200 mg/kg orally 21 days, then ISO
[10] = Eucalyptol control group, no ISO
[11] = eucalyptol control group, no ISO
[12] = pretreatment 100, 200 mg/kg, 21 days, vs ISO induced MI group
[13] = pretreatment (100 and 200 mg/kg, 21 days) vs MI animals

CC12CCC(CC1)C(C)(C)O2 [Eucalyptol, 1,8-cineole]
Heart Rate ([1]; Eucalyptol 100 mg/kg orally 21 days, then ISO 85 mg/kg s.c.): 294 ± 21.06 ≠ beat/min | P Wave [1, 8]: 0.015 ± 0.001 ≠ sec. | P-R interval [1, 8]: 0.212 ± 0.012 ≠ sec. | QRS complex [1, 8]: 0.038 ± 0.001 ≠ sec. | QT interval [1, 8]: 0.064 ± 0.003 ≠ sec. | R-R interval [1, 8]: 0.180 ± 0.004 ≠ sec. | ST segment [1, 8]: 0.061 ± 0.009 ≠ mV | Heart Rate ([1]; Eucalyptol 200 mg/kg orally 21 days, then ISO 85 mg/kg s.c.): 337.16 ± 14.98 ≠ beat/min | P Wave [1, 9]: 0.015 ± 0.001 ≠ sec. | P-R interval [1, 9]: 0.222 ± 0.05 ≠ sec. | QRS complex [1, 9]: 0.035 ± 0.001 ≠ sec. | QT interval [1, 9]: 0.061 ± 0.003 ≠ sec. | R-R interval [1, 9]: 0.183 ± 0.056 ≠ sec. | ST segment [1, 9]: 0.046 ± 0.009 ≠ mV | P Wave [1, 10]: 0.019 ± 0.002 s | P-R interval [1, 10]: 0.230 ± 0.012 s | QRS complex [1, 10]: 0.042 ± 0.001 s | QT interval [1, 10]: 0.047 ± 0.002 s | R-R interval [1, 10]: 0.222 ± 0.012 s | ST segment [1, 10]: 0.025 ± 0.002 mV | Heart Rate ([1]; Eucalyptol control group: eucalyptol for 3 weeks, saline s.c. instead of ISO): 398.16 ± 43.67 beat/min | heart rate and electrocardiographic (ECG) patterns [1, 11]: normal | HR as well as ECG alterations [1, 12]: reversed | infarcted area magnitude (infarct size) [2]: significant infarcted restricting action | cardiac enzymes (CPK, CK-MB, cTnT, cTnI) [3, 11]: normal | Cardiac Tropinine I (cTnI) [3, 12]: significantly diminished | Cardiac Tropinine T (cTnT) [3, 12]: significantly diminished | Creatine Kinase Myocardial Bound (CK-MB) [3, 12]: significantly diminished | Creatine Phosphokinase (CPK) [3, 12]: significantly diminished | MYD 88 relative mRNA expression level [4]: considerably (p<0.05) declined | TLR 2 relative mRNA expression level [4]: considerably (p<0.05) declined | TLR 4 relative mRNA expression level [4]: considerably (p<0.05) declined | TRIF relative mRNA expression level [4]: considerably (p<0.05) declined | TLR pathway protein content [5, 11]: no effect | post-myocardial infarction intensification of TLR pathway protein expression (TLR 2, TLR 4, MYD 88, TRIF) ([5]; pretreatment 100 and 200 mg/kg, cardiac tissue, Western blot): lessened | HSP-60, IL-6 and NFκB, 200 mg/kg compared with 100 mg/kg ([6]; dose of 200 mg/kg vs 100 mg/kg): further significant reduction | TNF-α, 200 mg/kg compared with 100 mg/kg ([6]; dose of 200 mg/kg vs 100 mg/kg): non-significant difference | HSP-60 and inflammatory markers (TNF-α, IL-6 and NFκB) [6, 11]: no effect | myocardial infarction elevation in HSP 60 ([6]; pretreatment 100 and 200 mg/kg): diminished | myocardial infarction elevation in inflammatory mediators (TNF-α, IL-6 and NFκB) ([6]; pretreatment 100 and 200 mg/kg): diminished | Bax, Bcl2, Caspase 3 and 9 [7, 11]: no effect | Bax relative mRNA expression [7, 13]: deteriorated | Bcl-2 mRNA expression [7, 13]: intensified | Caspase 3 and 9 activities [7, 13]: deteriorated
